Earlier results on one substance are cited in patent publication US12174205B2, “Phosphatidylethanolamine-specific probes” (Northwestern University, priority 2014, dated 2024).

The conditions of this series: at micromolar concentration: membrane distortion, PE translocation.

Consider cinnamycin, for which the cytotoxicity result is “exhibit cytotoxicity”.
